Results reported in the supplement of paper PMC8612539.
Converted amounts (≈) assume the structure as drawn.

Tests used:
Enterococcus spp. = experiment: minimum inhibitory concentration (MIC)
Procedure: (§1)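 Broth microdilution MIC (Sensititre BOPO7F bovine plate, CLSI methods) of 19 antimicrobials against field isolates of P. multocida, M. haemolytica, H. somni (deep nasopharyngeal swabs) and E. coli, Enterococcus spp. (rectal swabs) from weaned dairy heifers. Incubation 16-24 h at 35 C. MIC is the lowest concentration preventing visible growth. Values with <= or > lie at the tested range limits. Trimethoprim-sulfamethoxazole is given as the trimethoprim component of a 1:19 mixture.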

Mannheimia haemolytica = experiment: minimum inhibitory concentration (MIC)
Procedure: as §1

CC1(C)S[C@@H]2[C@H](NC(=O)Cc3ccccc3)C(=O)N2[C@H]1C(=O)O [Penicillin]
minimum inhibitory concentration [µg/mL]
Settings	Enterococcus spp.	Mannheimia haemolytica
isolate (source animal id): 2	≤ 0.12	–
isolate (source animal id): 8	–	0.25 (≈ 0.748 µM)
isolate (source animal id): 13	–	0.25 (≈ 0.748 µM)
isolate (source animal id): 18	–	≤ 0.12
isolate (source animal id): 21	–	0.25 (≈ 0.748 µM)
isolate (source animal id): 25	–	0.25 (≈ 0.748 µM)
isolate (source animal id): 27	–	0.25 (≈ 0.748 µM)
isolate (source animal id): 28	–	> 8
isolate (source animal id): 30	–	≤ 0.12
isolate (source animal id): 31	–	> 8
isolate (source animal id): 32	–	≤ 0.12
isolate (source animal id): 34	–	≤ 0.12
isolate (source animal id): 35	2 (≈ 5.98 µM)	–
isolate (source animal id): 36	–	≤ 0.12
isolate (source animal id): 37	–	≤ 0.12
isolate (source animal id): 40	–	≤ 0.12
isolate (source animal id): 41	–	≤ 0.12
isolate (source animal id): 42	2 (≈ 5.98 µM)	–
isolate (source animal id): 43	–	0.25 (≈ 0.748 µM)
isolate (source animal id): 44	2 (≈ 5.98 µM)	–
isolate (source animal id): 46	–	≤ 0.12
isolate (source animal id): 49	–	≤ 0.12
isolate (source animal id): 50	–	> 8
isolate (source animal id): 51	–	0.25 (≈ 0.748 µM)
isolate (source animal id): 52	–	≤ 0.12
isolate (source animal id): 53	–	≤ 0.12
isolate (source animal id): 55	–	≤ 0.12
isolate (source animal id): 56	–	≤ 0.12
isolate (source animal id): 57	–	0.25 (≈ 0.748 µM)
isolate (source animal id): 79	2 (≈ 5.98 µM)	–
isolate (source animal id): 88	≤ 0.12	–
isolate (source animal id): 91	≤ 0.12	–
isolate (source animal id): 92	0.5 (≈ 1.5 µM)	–
isolate (source animal id): 100	–	≤ 0.12
isolate (source animal id): 103	–	≤ 0.12
isolate (source animal id): 107	–	≤ 0.12
isolate (source animal id): 108	–	≤ 0.12
isolate (source animal id): 111	≤ 0.12	–
isolate (source animal id): 112	–	0.25 (≈ 0.748 µM)
isolate (source animal id): 113	–	0.5 (≈ 1.5 µM)
isolate (source animal id): 121	–	> 8
isolate (source animal id): 122	2 (≈ 5.98 µM)	0.25 (≈ 0.748 µM)
isolate (source animal id): 123	1 (≈ 2.99 µM)	1 (≈ 2.99 µM)
isolate (source animal id): 126	–	> 8
isolate (source animal id): 133	1 (≈ 2.99 µM)	0.5 (≈ 1.5 µM)
isolate (source animal id): 135	–	0.25 (≈ 0.748 µM)
isolate (source animal id): 138	–	> 8
isolate (source animal id): 141	–	≤ 0.12
isolate (source animal id): 142	–	0.25 (≈ 0.748 µM)
isolate (source animal id): 145	–	0.25 (≈ 0.748 µM)
isolate (source animal id): 149	–	≤ 0.12
isolate (source animal id): 151	–	0.25 (≈ 0.748 µM)
isolate (source animal id): 152	–	≤ 0.12
isolate (source animal id): 154	–	0.5 (≈ 1.5 µM)
isolate (source animal id): 158	2 (≈ 5.98 µM)	–
isolate (source animal id): 159	–	> 8
isolate (source animal id): 162	–	> 8
isolate (source animal id): 168	4 (≈ 12 µM)	–
isolate (source animal id): 169	4 (≈ 12 µM)	–
isolate (source animal id): 170	–	> 8
isolate (source animal id): 171	1 (≈ 2.99 µM)	0.5 (≈ 1.5 µM)
isolate (source animal id): 172	–	> 8
isolate (source animal id): 173	–	> 8
isolate (source animal id): 175	4 (≈ 12 µM)	–
isolate (source animal id): 177	2 (≈ 5.98 µM)	–
isolate (source animal id): 179	–	> 8
isolate (source animal id): 180	–	> 8
isolate (source animal id): 181	4 (≈ 12 µM)	–
isolate (source animal id): 182	4 (≈ 12 µM)	–
isolate (source animal id): 183	2 (≈ 5.98 µM)	> 8
isolate (source animal id): 186	–	> 8
isolate (source animal id): 187	4 (≈ 12 µM)	> 8
isolate (source animal id): 188	–	> 8
isolate (source animal id): 190	4 (≈ 12 µM)	0.5 (≈ 1.5 µM)
isolate (source animal id): 191	–	> 8
isolate (source animal id): 192	–	0.25 (≈ 0.748 µM)
isolate (source animal id): 194	1 (≈ 2.99 µM)	–
isolate (source animal id): 195	4 (≈ 12 µM)	–
isolate (source animal id): 197	0.5 (≈ 1.5 µM)	–
isolate (source animal id): 201	–	> 8
isolate (source animal id): 202	–	> 8
isolate (source animal id): 209	–	> 8
isolate (source animal id): 211	4 (≈ 12 µM)	> 8
isolate (source animal id): 214	2 (≈ 5.98 µM)	–
isolate (source animal id): 220	–	> 8
isolate (source animal id): 221	–	> 8
isolate (source animal id): 222	1 (≈ 2.99 µM)	–
isolate (source animal id): 223	1 (≈ 2.99 µM)	> 8
isolate (source animal id): 228	2 (≈ 5.98 µM)	–
isolate (source animal id): 230	8 (≈ 23.9 µM)	–
isolate (source animal id): 233	–	> 8
isolate (source animal id): 235	2 (≈ 5.98 µM)	–
isolate (source animal id): 236	2 (≈ 5.98 µM)	–
isolate (source animal id): 237	–	0.25 (≈ 0.748 µM)
isolate (source animal id): 239	1 (≈ 2.99 µM)	–
isolate (source animal id): 241	4 (≈ 12 µM)	> 8
isolate (source animal id): 244	1 (≈ 2.99 µM)	–
isolate (source animal id): 246	1 (≈ 2.99 µM)	–
isolate (source animal id): 247	8 (≈ 23.9 µM)	–
isolate (source animal id): 250	1 (≈ 2.99 µM)	–
isolate (source animal id): 252	2 (≈ 5.98 µM)	0.25 (≈ 0.748 µM)
isolate (source animal id): 253	–	0.25 (≈ 0.748 µM)
isolate (source animal id): 259	–	> 8
isolate (source animal id): 260	–	≤ 0.12
isolate (source animal id): 262	–	> 8
isolate (source animal id): 268	≤ 0.12	–
isolate (source animal id): 282	2 (≈ 5.98 µM)	> 8
isolate (source animal id): 285	2 (≈ 5.98 µM)	–
isolate (source animal id): 287	–	0.25 (≈ 0.748 µM)
isolate (source animal id): 288	–	0.5 (≈ 1.5 µM)
isolate (source animal id): 289	0.5 (≈ 1.5 µM)	–
isolate (source animal id): 290	0.25 (≈ 0.748 µM)	–
isolate (source animal id): 291	–	≤ 0.12
isolate (source animal id): 293	–	0.25 (≈ 0.748 µM)
isolate (source animal id): 296	0.5 (≈ 1.5 µM)	–
isolate (source animal id): 298	≤ 0.12	≤ 0.12
isolate (source animal id): 299	–	0.25 (≈ 0.748 µM)
isolate (source animal id): 300	–	≤ 0.12
isolate (source animal id): 301	≤ 0.12	–
isolate (source animal id): 302	–	≤ 0.12
isolate (source animal id): 304	–	≤ 0.12
isolate (source animal id): 306	–	≤ 0.12
isolate (source animal id): 308	–	≤ 0.12
isolate (source animal id): 309	–	≤ 0.12
isolate (source animal id): 310	4 (≈ 12 µM)	–
isolate (source animal id): 313	–	0.25 (≈ 0.748 µM)
isolate (source animal id): 318	–	≤ 0.12
isolate (source animal id): 320	0.5 (≈ 1.5 µM)	≤ 0.12
isolate (source animal id): 321	–	≤ 0.12
isolate (source animal id): 323	–	0.25 (≈ 0.748 µM)
isolate (source animal id): 324	–	≤ 0.12
isolate (source animal id): 326	–	≤ 0.12
isolate (source animal id): 328	–	0.25 (≈ 0.748 µM)
isolate (source animal id): 329	–	0.25 (≈ 0.748 µM)
isolate (source animal id): 331	≤ 0.12	–
isolate (source animal id): 333	0.25 (≈ 0.748 µM)	≤ 0.12
isolate (source animal id): 335	–	0.5 (≈ 1.5 µM)
isolate (source animal id): 338	–	0.25 (≈ 0.748 µM)
isolate (source animal id): 341	2 (≈ 5.98 µM)	–
